In patent publication US20240245682A1, “ALPHA-V-BETA-8 INTEGRIN INHIBITORS AND USES THEREOF” (Pliant Therapeutics, Inc., priority 2022, published 2024):
pIC50: −log10 of the molar value.

Assays:
Assay in all cases: AlphaScreen proximity-based integrin binding assay with TGF-b1 LAP
Settings in all cases: values given as ranges
human integrin αVβ1 = human integrin αVβ1 (Homo sapiens, UniProt P05556+P06756)
Experimental: (§1) The biochemical potency of the disclosed compounds was determined using the AlphaScreen® (Perkin Elmer, Waltham, MA) proximity-based assay as described previously (Ullman E F et al., Luminescent oxygen channeling immunoassay: Measurement of particle binding kinetics by chemiluminescence. Proc. Natl. Acad. Sci. USA, Vol. 91, pp. 5426-5430, June 1994, herein incorporated by reference in its entirety). To gauge the potency of inhibitors of binding to each of human integrins αVβ1, αVβ6, and αVβ8, inhibitor compounds were independently incubated with one of αVβ1, αVβ6, or αVβ8, together with TGF-b1 LAP and biotinylated anti-LAP antibody plus acceptor and donor beads, following the manufacture's recommendations. The donor beads were coated with streptavidin. […] All incubations occurred at room temperatures in 50 mM Tris-HCl, pH 7.5, 0.1% BSA supplemented with 1 mM each CaCl2 and MgCl2.
(§2) The order of reagent addition was as follows:
(§3) 1. αVβ1, αVβ6, or αVβ8 integrin, test inhibitor compound, LAP, biotinylated anti-LAP antibody and acceptor beads were all added together.
(§4) 2. After 2 hours, donor beads were added. After another 30 minute incubation, samples were then read.
(§5) Integrin binding was evaluated by exciting donor beads at 680 nm, and measuring the fluorescent signal produced, between 520-620 nm, using a Biotek Instruments (Winooski, VT, USA) SynergyNeo2 multimode plate reader. Compound potency was assessed by determining inhibitor concentrations required to reduce fluorescent light output by 50%. Data analysis for IC50 determinations was carried out by nonlinear four parameter logistic regression analysis using Dotmatics ELN Software (Core Informatics Inc., Branford, Ct). […] Comp #in the Table and Examples below refers to the compound of the corresponding Example number as described in the Synthetic Examples.

human integrin αVβ6 = human integrin αVβ6 (Homo sapiens, UniProt P06756+P18564)
Chain of human integrin αVβ6 (P06756 31-992 limits assumed): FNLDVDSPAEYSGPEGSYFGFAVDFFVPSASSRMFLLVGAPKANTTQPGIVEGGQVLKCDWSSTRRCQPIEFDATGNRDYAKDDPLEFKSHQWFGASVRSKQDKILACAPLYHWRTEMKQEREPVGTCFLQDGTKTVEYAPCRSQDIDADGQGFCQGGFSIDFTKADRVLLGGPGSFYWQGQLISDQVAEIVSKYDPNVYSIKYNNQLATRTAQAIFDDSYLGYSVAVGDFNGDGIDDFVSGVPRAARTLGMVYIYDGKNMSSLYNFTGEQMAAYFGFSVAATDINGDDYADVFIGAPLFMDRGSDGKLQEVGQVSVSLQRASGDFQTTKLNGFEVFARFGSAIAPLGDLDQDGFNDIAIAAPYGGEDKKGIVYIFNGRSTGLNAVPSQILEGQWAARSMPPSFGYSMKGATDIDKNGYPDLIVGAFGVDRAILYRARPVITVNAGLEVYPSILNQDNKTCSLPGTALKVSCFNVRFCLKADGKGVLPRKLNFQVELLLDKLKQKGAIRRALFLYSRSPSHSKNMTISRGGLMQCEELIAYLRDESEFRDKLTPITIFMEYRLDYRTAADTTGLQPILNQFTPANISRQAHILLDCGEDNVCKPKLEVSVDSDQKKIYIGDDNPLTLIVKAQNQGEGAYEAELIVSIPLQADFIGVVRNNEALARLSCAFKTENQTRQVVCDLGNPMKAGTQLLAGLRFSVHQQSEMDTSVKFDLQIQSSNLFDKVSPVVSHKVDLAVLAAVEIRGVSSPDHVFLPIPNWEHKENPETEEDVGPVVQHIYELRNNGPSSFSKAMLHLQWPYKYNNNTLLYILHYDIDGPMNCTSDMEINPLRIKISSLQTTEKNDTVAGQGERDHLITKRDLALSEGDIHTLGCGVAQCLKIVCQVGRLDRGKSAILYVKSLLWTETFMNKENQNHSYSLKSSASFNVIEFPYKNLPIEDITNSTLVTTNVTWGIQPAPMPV
Chain of human integrin αVβ6 (P18564 22-707 limits assumed): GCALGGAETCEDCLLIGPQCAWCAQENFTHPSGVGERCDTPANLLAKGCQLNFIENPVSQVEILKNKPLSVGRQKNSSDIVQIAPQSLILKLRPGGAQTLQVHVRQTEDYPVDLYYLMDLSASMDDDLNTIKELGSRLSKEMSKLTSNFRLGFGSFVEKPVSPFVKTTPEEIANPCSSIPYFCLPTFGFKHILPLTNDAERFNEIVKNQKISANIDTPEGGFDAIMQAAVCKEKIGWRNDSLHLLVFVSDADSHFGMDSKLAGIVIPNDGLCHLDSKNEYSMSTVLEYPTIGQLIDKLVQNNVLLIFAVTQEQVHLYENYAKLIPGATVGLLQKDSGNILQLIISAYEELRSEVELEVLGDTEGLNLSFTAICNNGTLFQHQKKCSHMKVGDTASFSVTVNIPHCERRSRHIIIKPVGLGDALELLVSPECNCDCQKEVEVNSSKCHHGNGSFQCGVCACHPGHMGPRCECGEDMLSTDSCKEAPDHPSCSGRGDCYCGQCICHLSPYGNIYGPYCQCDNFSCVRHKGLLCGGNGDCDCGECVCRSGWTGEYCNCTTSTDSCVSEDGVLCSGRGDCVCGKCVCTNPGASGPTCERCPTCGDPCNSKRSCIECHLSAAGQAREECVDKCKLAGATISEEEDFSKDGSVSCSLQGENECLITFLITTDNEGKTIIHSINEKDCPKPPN
Experimental: as §1, §2, §3, §4, §5

human integrin αVβ8 = human integrin αVβ8 (Homo sapiens, UniProt P06756+P26012)
Chain of human integrin αVβ8 (P06756 31-992 limits assumed): as the sequence (P06756 31-992 limits assumed) above
Chain of human integrin αVβ8 (P26012 43-684 limits assumed): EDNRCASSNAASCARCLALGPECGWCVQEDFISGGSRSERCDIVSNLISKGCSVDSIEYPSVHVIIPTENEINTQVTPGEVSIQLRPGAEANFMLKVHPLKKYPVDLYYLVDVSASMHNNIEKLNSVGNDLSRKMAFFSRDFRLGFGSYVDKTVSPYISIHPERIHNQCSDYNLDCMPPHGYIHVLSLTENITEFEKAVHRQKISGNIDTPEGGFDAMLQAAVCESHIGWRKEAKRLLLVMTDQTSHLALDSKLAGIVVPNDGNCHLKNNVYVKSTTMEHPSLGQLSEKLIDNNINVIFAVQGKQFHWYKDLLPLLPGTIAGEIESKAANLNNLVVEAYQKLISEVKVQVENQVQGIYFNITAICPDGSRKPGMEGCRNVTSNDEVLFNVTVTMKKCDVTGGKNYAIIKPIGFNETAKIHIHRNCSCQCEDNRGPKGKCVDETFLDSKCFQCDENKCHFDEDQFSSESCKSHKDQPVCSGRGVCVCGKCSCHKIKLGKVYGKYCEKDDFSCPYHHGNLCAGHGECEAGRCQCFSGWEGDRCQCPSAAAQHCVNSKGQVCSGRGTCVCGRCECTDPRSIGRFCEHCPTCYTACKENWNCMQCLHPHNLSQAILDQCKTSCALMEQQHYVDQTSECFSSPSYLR
Experimental: as §1, §2, §3, §4, §5

Chain of human integrin αVβ1 (P06756 31-992 limits assumed): as the sequence (P06756 31-992 limits assumed) above
Chain of human integrin αVβ1 (P05556 21-728 limits assumed): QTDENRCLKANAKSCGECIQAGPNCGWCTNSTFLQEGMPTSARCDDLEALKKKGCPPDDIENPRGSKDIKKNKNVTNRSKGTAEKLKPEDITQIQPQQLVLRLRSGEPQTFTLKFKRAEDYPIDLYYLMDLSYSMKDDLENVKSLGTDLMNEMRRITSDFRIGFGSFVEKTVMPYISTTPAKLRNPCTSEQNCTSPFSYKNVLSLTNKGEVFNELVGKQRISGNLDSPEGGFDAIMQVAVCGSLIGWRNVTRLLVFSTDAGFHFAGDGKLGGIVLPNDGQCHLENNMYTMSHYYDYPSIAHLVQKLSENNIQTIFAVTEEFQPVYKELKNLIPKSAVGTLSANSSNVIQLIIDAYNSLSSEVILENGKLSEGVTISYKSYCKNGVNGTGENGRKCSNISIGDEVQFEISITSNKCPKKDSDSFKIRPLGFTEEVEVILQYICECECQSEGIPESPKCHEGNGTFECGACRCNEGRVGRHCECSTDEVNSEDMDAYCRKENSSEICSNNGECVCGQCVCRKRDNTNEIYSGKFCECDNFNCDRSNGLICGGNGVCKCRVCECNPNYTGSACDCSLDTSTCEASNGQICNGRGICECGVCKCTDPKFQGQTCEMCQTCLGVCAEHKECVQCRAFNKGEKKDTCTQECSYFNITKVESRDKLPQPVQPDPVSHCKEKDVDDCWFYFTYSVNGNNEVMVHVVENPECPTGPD

Row | pIC50 (human integrin αVβ1) | pIC50 (human integrin αVβ6) | pIC50 (human integrin αVβ8) | Compound
1 | > 7.30 | ≤ 6.30 | 6.82 to 7.30 | O=C(O)[C@H](CCOCCCCc1ccc2c(n1)NCCC2)NC(=O)C1(c2ccccc2)CC1 [Compound 10, N-(1-phenylcyclopropane-1-carbonyl)-O-(4-(5,6,7,8-tetrahydro-1,8-naphthyridin-2-yl)butyl)-L-homoserine]
2 | > 7.30 | ≤ 6.30 | > 7.30 | O=C(O)[C@H](CCOCCCCc1ccc2c(n1)NCCC2)NC(=O)C1(c2ncccc2C(F)(F)F)CC1 [Compound 25, O-(4-(5,6,7,8-tetrahydro-1,8-naphthyridin-2-yl)butyl)-N-(1-(3-(trifluoromethyl)pyridin-2-yl)cyclopropane-1-carbonyl)-L-homoserine]
3 | > 7.30 | < 6.30 | > 7.30 | O=C(O)[C@H](CCOCCCCc1ccc2c(n1)NCCC2)NC(=O)C1(c2cccc(C(F)(F)F)c2)CCOCC1 [Compound 86, O-(4-(5,6,7,8-tetrahydro-1,8-naphthyridin-2-yl)butyl)-N-(4-(3-(trifluoromethyl)phenyl)tetrahydro-2H-pyran-4-carbonyl)-L-homoserine]
4 | > 7.30 | ≤ 6.30 | > 7.30 | Cc1cnc(C2(C(=O)N[C@@H](CCOCCCCc3ccc4c(n3)NCCC4)C(=O)O)CC2)c(Cl)c1 [Compound 36, N-(1-(3-chloro-5-methylpyridin-2-yl)cyclopropane-1-carbonyl)-O-(4-(5,6,7,8-tetrahydro-1,8-naphthyridin-2-yl)butyl)-L-homoserine]
5 | > 7.30 | ≤ 6.30 | > 7.30 | Cn1cc(C#N)c(C2(C(=O)N[C@@H](CCOCCCCc3ccc4c(n3)NCCC4)C(=O)O)CC2)n1 [Compound 75, N-(1-(4-cyano-1-methyl-1H-pyrazol-3-yl)cyclopropane-1-carbonyl)-O-(4-(5,6,7,8-tetrahydro-1,8-naphthyridin-2-yl)butyl)-L-homoserine]
6 | > 7.30 | ≤ 6.30 | > 7.30 | O=C(O)[C@H](CCOCCCCc1ccc2c(n1)NCCC2)NC(=O)C1(c2ncccc2OC(F)F)CC1 [Compound 38, N-(1-(3-(difluoromethoxy)pyridin-2-yl)cyclopropane-1-carbonyl)-O-(4-(5,6,7,8-tetrahydro-1,8-naphthyridin-2-yl)butyl)-L-homoserine]
7 | > 7.30 | < 6.30 | 6.82 to 7.30 | O=C(O)[C@H](CCOCCCCc1ccc2c(n1)NCCC2)NC(=O)C1(n2c(C3CC3)cccc2=O)CC1 [Compound 91, N-(1-(6-cyclopropyl-2-oxopyridin-1(2H)-yl)cyclopropane-1-carbonyl)-O-(4-(5,6,7,8-tetrahydro-1,8-naphthyridin-2-yl)butyl)-L-homoserine]
8 | > 7.30 | ≤ 6.30 | > 7.30 | O=C(O)[C@H](CCOCCCCc1ccc2c(n1)NCCC2)NC(=O)C1(c2ccccc2Cl)CC1 [Compound 6, N-(1-(2-chlorophenyl)cyclopropane-1-carbonyl)-O-(4-(5,6,7,8-tetrahydro-1,8-naphthyridin-2-yl)butyl)-L-homoserine]
9 | > 7.30 | ≤ 6.30 | 6.82 to 7.30 | COc1nccc(Cl)c1C1(C(=O)N[C@@H](CCOCCCCc2ccc3c(n2)NCCC3)C(=O)O)CC1 [Compound 44, N-(1-(4-chloro-2-methoxypyridin-3-yl)cyclopropane-1-carbonyl)-O-(4-(5,6,7,8-tetrahydro-1,8-naphthyridin-2-yl)butyl)-L-homoserine]
10 | 6.82 to 7.30 | ≤ 6.30 | 6.60 to 6.82 | COc1ccc(F)c(F)c1C(C)(C)C(=O)N[C@@H](CCOCCCCc1ccc2c(n1)NCCC2)C(=O)O [Compound 4, N-(2-(2,3-difluoro-6-methoxyphenyl)-2-methylpropanoyl)-O-(4-(5,6,7,8-tetrahydro-1,8-naphthyridin-2-yl)butyl)-L-homoserine]

Further lines, the compound ahead of its results:

Row | Compound | pIC50 (human integrin αVβ1) | pIC50 (human integrin αVβ6) | pIC50 (human integrin αVβ8)
11 | CS(=O)(=O)c1ccccc1C1(C(=O)N[C@@H](CCOCCCCc2ccc3c(n2)NCCC3)C(=O)O)CC1 [Compound 46, N-(1-(2-(methylsulfonyl)phenyl)cyclopropane-1-carbonyl)-O-(4-(5,6,7,8-tetrahydro-1,8-naphthyridin-2-yl)butyl)-L-homoserine] | 6.82 to 7.30 | ≤ 6.30 | 6.30 to 6.60
12 | O=C(O)[C@H](CCOCCCCc1ccc2c(n1)NCCC2)NC(=O)C1(c2cnccn2)CC1 [Compound 11, N-(1-(pyrazin-2-yl)cyclopropane-1-carbonyl)-O-(4-(5,6,7,8-tetrahydro-1,8-naphthyridin-2-yl)butyl)-L-homoserine] | > 7.30 | ≤ 6.30 | 6.82 to 7.30
13 | O=C(O)[C@H](CCOCCCCc1ccc2c(n1)NCCC2)NC(=O)C1(c2cn[nH]c2Cl)CC1 [Compound 74, N-(1-(5-chloro-1H-pyrazol-4-yl)cyclopropane-1-carbonyl)-O-(4-(5,6,7,8-tetrahydro-1,8-naphthyridin-2-yl)butyl)-L-homoserine] | > 7.30 | ≤ 6.30 | > 7.30
14 | COc1ncnc(Cl)c1C1(C(=O)N[C@@H](CCOCCCCc2ccc3c(n2)NCCC3)C(=O)O)CC1 [Compound 62, N-(1-(4-chloro-6-methoxypyrimidin-5-yl)cyclopropane-1-carbonyl)-O-(4-(5,6,7,8-tetrahydro-1,8-naphthyridin-2-yl)butyl)-L-homoserine] | > 7.30 | ≤ 6.30 | > 7.30
15 | Cn1cc(C(F)(F)F)c(C2(C(=O)N[C@@H](CCOCCCCc3ccc4c(n3)NCCC4)C(=O)O)CC2)n1 [Compound 77, N-(1-(1-methyl-4-(trifluoromethyl)-1H-pyrazol-3-yl)cyclopropane-1-carbonyl)-O-(4-(5,6,7,8-tetrahydro-1,8-naphthyridin-2-yl)butyl)-L-homoserine] | > 7.30 | ≤ 6.30 | > 7.30
16 | O=C(O)[C@H](CCOCCCCc1ccc2c(n1)NCCC2)NC(=O)C1(n2ccc(Cl)n2)CC1 [Compound 55, N-(1-(3-chloro-1H-pyrazol-1-yl)cyclopropane-1-carbonyl)-O-(4-(5,6,7,8-tetrahydro-1,8-naphthyridin-2-yl)butyl)-L-homoserine] | > 7.30 | ≤ 6.30 | 6.82 to 7.30
17 | CC(C)(C(=O)N[C@@H](CCOCCCCc1ccc2c(n1)NCCC2)C(=O)O)c1ccccc1 [Compound 2, N-(2-methyl-2-phenylpropanoyl)-O-(4-(5,6,7,8-tetrahydro-1,8-naphthyridin-2-yl)butyl)-L-homoserine] | > 7.30 | ≤ 6.30 | 6.82 to 7.30
18 | Cc1nccnc1C1(C(=O)N[C@@H](CCOCCCCc2ccc3c(n2)NCCC3)C(=O)O)CC1 [Compound 42, N-(1-(3-methylpyrazin-2-yl)cyclopropane-1-carbonyl)-O-(4-(5,6,7,8-tetrahydro-1,8-naphthyridin-2-yl)butyl)-L-homoserine] | > 7.30 | ≤ 6.30 | > 7.30
19 | O=C(O)[C@H](CCOCCCCc1ccc2c(n1)NCCC2)NC(=O)C1(n2c(=O)ccc3ccccc32)CC1 [Compound 90, N-(1-(2-oxoquinolin-1(2H)-yl)cyclopropane-1-carbonyl)-O-(4-(5,6,7,8-tetrahydro-1,8-naphthyridin-2-yl)butyl)-L-homoserine] | 6.82 to 7.30 | < 6.30 | > 7.30
20 | [2H]C1([2H])C([2H])([2H])C1(C(=O)N[C@@H](CCOCCCCc1ccc2c(n1)NCCC2)C(=O)O)c1c(C)ncnc1Cl [Compound 104, N-(1-(4-chloro-6-methylpyrimidin-5-yl)cyclopropane-1-carbonyl-2,2,3,3-d4)-O-(4-(5,6,7,8-tetrahydro-1,8-naphthyridin-2-yl)butyl)-L-homoserine] | > 7.30 | < 6.30 | > 7.30
21 | COc1cccnc1C1(C(=O)N[C@@H](CCOCCCCc2ccc3c(n2)NCCC3)C(=O)O)CC1 [Compound 30, N-(1-(3-methoxypyridin-2-yl)cyclopropane-1-carbonyl)-O-(4-(5,6,7,8-tetrahydro-1,8-naphthyridin-2-yl)butyl)-L-homoserine] | 6.82 to 7.30 | ≤ 6.30 | 6.82 to 7.30
22 | Cc1ncc(F)cc1C1(C(=O)N[C@@H](CCOCCCCc2ccc3c(n2)NCCC3)C(=O)O)CC1 [Compound 28, N-(1-(5-fluoro-2-methylpyridin-3-yl)cyclopropane-1-carbonyl)-O-(4-(5,6,7,8-tetrahydro-1,8-naphthyridin-2-yl)butyl)-L-homoserine] | > 7.30 | ≤ 6.30 | > 7.30
23 | O=C(O)[C@H](CCOCCCCc1ccc2c(n1)NCCC2)NC(=O)C1(c2ncncc2Cl)CC1 [Compound 49, N-(1-(5-chloropyrimidin-4-yl)cyclopropane-1-carbonyl)-O-(4-(5,6,7,8-tetrahydro-1,8-naphthyridin-2-yl)butyl)-L-homoserine] | > 7.30 | ≤ 6.30 | > 7.30
